According to the Kinase Knowledgebase extract (Sharma et al. 2016):

target: MAPK14 (human) (UniProt Q16539); assay: Assessment of MAPK14 Kinase Activity
Sequence (Q16539 whole entry, looked up): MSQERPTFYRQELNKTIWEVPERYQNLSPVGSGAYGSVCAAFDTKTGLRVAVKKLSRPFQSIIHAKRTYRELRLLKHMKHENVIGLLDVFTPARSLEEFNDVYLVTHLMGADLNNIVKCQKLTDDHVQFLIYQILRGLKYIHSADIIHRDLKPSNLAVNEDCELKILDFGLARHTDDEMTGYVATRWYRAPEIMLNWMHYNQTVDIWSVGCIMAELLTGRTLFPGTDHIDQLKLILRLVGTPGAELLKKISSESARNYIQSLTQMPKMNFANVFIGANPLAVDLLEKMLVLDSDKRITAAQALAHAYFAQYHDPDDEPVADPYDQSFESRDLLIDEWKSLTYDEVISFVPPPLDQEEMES

IC50, ≤ 1 µM:
CCOC(=O)c1sc2c(ccc(=O)n2-c2ccccc2)c1C(O)c1cccc(Cl)c1 (centres undefined), Cc1cccc(C(O)c2c(C#N)sc3c2ccc(=O)n3-c2ccccc2)c1 (centres undefined), CCOC(=O)c1sc2c(ccc(=O)n2-c2ccccc2)c1NNc1ccc(C)cc1, CCOC(=O)c1sc2c(ccc(=O)n2-c2ccccc2)c1NC(=O)c1ccc(N)cc1, CCOC(=O)c1sc2c(ccc(=O)n2-c2ccccc2)c1C(O)c1ccccc1 (centres undefined), CCOC(=O)c1sc2c(ccc(=O)n2-c2ccccc2)c1NS(=O)(=O)c1ccccc1, N#Cc1sc2c(ccc(=O)n2-c2ccccc2)c1NCc1ccccc1, CCOC(=O)c1sc2c(ccc(=O)n2-c2ccccc2)c1NCc1c(F)cccc1F, CCOC(=O)c1sc2c(ccc(=O)n2-c2ccccc2)c1Cc1ccccc1, N#Cc1sc2c(ccc(=O)n2-c2ccccc2)c1C(O)c1ccccc1 (centres undefined), CCOC(=O)c1sc2c(ccc(=O)n2-c2ccccc2)c1NCc1ccccc1, CCOC(=O)c1sc2c(ccc(=O)n2-c2ccccc2)c1CCc1ccccc1, CCOC(=O)c1sc2c(ccc(=O)n2-c2ccccc2)c1C(O)c1cccc(C)c1 (centres undefined), CCOC(=O)c1sc2c(ccc(=O)n2-c2ccccc2)c1NC(C)c1ccccc1 (centres undefined), CCOC(=O)c1sc2c(ccc(=O)n2-c2ccccc2)c1S(=O)(=O)Nc1ccccc1, CCOC(=O)c1sc2c(ccc(=O)n2-c2ccccc2)c1NCc1ccccn1, CCOC(=O)c1sc2c(ccc(=O)n2-c2ccccc2)c1Sc1cccc(C)c1, CCOC(=O)c1sc2c(ccc(=O)n2CC2CC2)c1C(O)c1ccccc1 (centres undefined), CCOC(=O)c1sc2c(ccc(=O)n2-c2ccccc2)c1NC(=O)c1ccccc1, CCOC(=O)c1sc2c(ccc(=O)n2-c2ccccc2)c1Sc1ccccc1, NC(=O)c1sc2c(ccc(=O)n2-c2ccccc2)c1Sc1ccccc1, CCOC(=O)c1sc2c(ccc(=O)n2-c2ccccc2)c1C(O)c1cccc(C)n1 (centres undefined), CCOC(=O)c1sc2c(ccc(=O)n2-c2ccccc2)c1N(C)Cc1ccccc1, CCOC(=O)c1sc2c(ccc(=O)n2-c2ccccc2)c1Oc1ccccc1
